In publication PMC2120106 (The Journal of Cell Biology, 1994):

Experiments:
isolated vacuoles = experiment: microscopic in vitro fusion assay with CDCFDA-labeled vacuoles; set-up: species or system Saccharomyces cerevisiae; conditions: standard fusion reaction, 120 min; for vacuole fusion / morphology seen by fluorescence microscopy: 20 uM, Fig. 6 D, E, G, H
[1] = tested on: vacuole-to-vacuole fusion; experiment: in vitro vacuole-to-vacuole fusion assay; assay type: biochemical, Saccharomyces cerevisiae; conditions: for effect on in vitro vacuole-to-vacuole fusion (in words): added to standard reaction, Figs. 5, 7 A or data not shown; for effect on inter-vacuole fusion: Fig. 7 A
G-proteins = conditions: cited from earlier work; for stimulation of G-proteins in vitro: ref Oppi et al., 1992

Compound: N#CC(C#N)=NNc1cccc(Cl)c1 [CCCP, carbonyl cyanide m-chlorophenyl-hydrazone]
- vacuole fusion / morphology seen by fluorescence microscopy (isolated vacuoles): blocked vacuole fusion
- effect on in vitro vacuole-to-vacuole fusion (in words) ([1]; 25C, 120 min): inhibited vacuole fusion in vitro

Compound: Nc1nc2c(ncn2[C@@H]2O[C@H](COP(=O)(O)OP(=O)(O)OP(O)(O)=S)[C@@H](O)[C@H]2O)c(=O)[nH]1 [GTP3,S, Guanosine 5'-0-(3-thiotriphosphate)]
- vacuole fusion seen by fluorescence microscopy (isolated vacuoles; 1.0 mM, Fig. 6 F): fusion was largely inhibited

Compound: NC[C@@H]1O[C@H](O[C@H]2[C@@H](O)[C@H](O[C@@H]3[C@@H](O)[C@H](N)C[C@H](N)[C@H]3O[C@H]3O[C@H](CN)[C@@H](O)[C@H](O)[C@H]3N)O[C@@H]2CO)[C@H](N)[C@@H](O)[C@@H]1O [Neomycin]
- vacuole fusion seen by fluorescence microscopy (isolated vacuoles; 0.6 mM, Fig. 6 C): blocked vacuole fusion
- concentration that blocks inter-vacuole fusion ([1]; standard reaction, 25C, 120 min, Fig. 5 A): 0.2 mM

Compound: CO/C1=C\C(C)=C\[C@@H](C)[C@@H](O)[C@@H](C)C/C(C)=C/C=C/[C@H](OC)[C@@H]([C@@H](C)[C@@H](O)[C@H](C)[C@@]2(O)C[C@@H](O)[C@H](C)[C@@H](C(C)C)O2)OC1=O [bafilomycin Al]
- vacuole fusion / morphology seen by fluorescence microscopy (isolated vacuoles): blocked vacuole fusion
- effect on in vitro vacuole-to-vacuole fusion (in words) ([1]; 25C, 120 min): inhibited vacuole fusion in vitro

Compound: F [fluoride]
- effect on in vitro vacuole-to-vacuole fusion (in words) ([1]; 25C, 120 min): inhibitory

Compound: INLQALALAALAQALL-NH2 [Mas7[Q4;Q11]]
- vacuole fusion / morphology seen by fluorescence microscopy (isolated vacuoles): only a weak influence
- stimulation of G-proteins (G-proteins; ref Higashijima, T., personal communication): does not stimulate G-proteins
- relief of the inhibition caused by mas7 ([1]; both compounds added together, data not shown): did not relieve
- effect on inter-vacuole fusion ([1]; concentrations up to 50 uM, standard reaction): did not inhibit
- effect on inter-vacuole fusion ([1]; very high concentration, 100 uM, standard reaction): did inhibit

Compound: LKIALNLKALIAAK-NH2 [MAS-PEP2]
- stimulation of G-proteins in vitro (G-proteins): do not stimulate G-proteins in vitro
- effect on in vitro vacuole-to-vacuole fusion (in words) ([1]; 25C, 120 min): inactive in the fusion assay

Compound: LNAKLKAIALALIK-NH2 [mas-PEP7]
- stimulation of G-proteins in vitro (G-proteins): do not stimulate G-proteins in vitro
- effect on in vitro vacuole-to-vacuole fusion (in words) ([1]; 25C, 120 min): inactive in the fusion assay

Compound: Lithium
- effect on in vitro vacuole-to-vacuole fusion (in words) ([1]; 25C, 120 min): did not influence the fusion reactions

Compound: NILALAKALIKALK-NH2 [mas-PEP8]
- stimulation of G-proteins in vitro (G-proteins): potent G-protein activators

Compound: Triton X-100
- influence on the inhibition of fusion by mastoparan ([1]; 0-30 ug/ml plus 20 uM mastoparan, Fig. 8): did not influence the effects of mastoparan on fusion
- fusion in standard fusion reactions ([1]; added at 0.01%, data not shown): no fusion could be observed
- effect on vacuole fusion ([1]; detergent control, up to highest concentration tested, 30 ug/ml, Fig. 8): did not inhibit vacuole fusion

Compound: benzalkonium chloride [BAC]
- concentration of maximal inhibition of inter-vacuolar fusion ([1]; alone in standard fusion assay, Fig. 8): 10 #g/ml

Compound: mastoparan
- effect on in vitro vacuole-to-vacuole fusion (in words) ([1]; 25C, 120 min): inhibited
